According to patent US11548870B2, “Compounds useful as inhibitors of helios protein” (Bristol-Myers Squibb Company, priority 2019, dated 2023):
Read-outs that look alike come from different tables or passages of the source.

Experiments:
[1] = molecular target: T1, Helios (Homo sapiens, UniProt Q96SW2+Q9UKS7); assay: Helios Cellular Degradation Assay (flow cytometry, Helios-PE antibody staining, 72 h); type: cell-based; settings: for Dmax: Jurkat, read-out: Helios Dmax
T1 construct: fluorescently labelled antibodies against Helios and Ikaros; endogenous in cells; host or cells: Jurkat cells
T1 sequence (Q9UKS7 whole entry): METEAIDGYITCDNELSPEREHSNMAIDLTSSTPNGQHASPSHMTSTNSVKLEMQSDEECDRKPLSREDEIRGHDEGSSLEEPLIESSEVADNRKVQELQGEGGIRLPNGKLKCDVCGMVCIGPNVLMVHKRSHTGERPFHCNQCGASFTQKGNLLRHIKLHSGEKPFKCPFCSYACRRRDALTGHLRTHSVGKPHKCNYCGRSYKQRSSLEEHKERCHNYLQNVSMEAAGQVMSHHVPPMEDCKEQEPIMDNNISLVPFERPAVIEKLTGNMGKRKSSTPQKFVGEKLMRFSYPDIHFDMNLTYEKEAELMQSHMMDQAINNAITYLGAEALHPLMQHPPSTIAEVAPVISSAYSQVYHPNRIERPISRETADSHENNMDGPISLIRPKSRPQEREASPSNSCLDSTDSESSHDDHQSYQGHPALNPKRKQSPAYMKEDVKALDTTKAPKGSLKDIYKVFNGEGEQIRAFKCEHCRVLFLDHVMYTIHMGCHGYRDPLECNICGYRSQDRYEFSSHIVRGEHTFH
T1 sequence (Q96SW2 whole entry): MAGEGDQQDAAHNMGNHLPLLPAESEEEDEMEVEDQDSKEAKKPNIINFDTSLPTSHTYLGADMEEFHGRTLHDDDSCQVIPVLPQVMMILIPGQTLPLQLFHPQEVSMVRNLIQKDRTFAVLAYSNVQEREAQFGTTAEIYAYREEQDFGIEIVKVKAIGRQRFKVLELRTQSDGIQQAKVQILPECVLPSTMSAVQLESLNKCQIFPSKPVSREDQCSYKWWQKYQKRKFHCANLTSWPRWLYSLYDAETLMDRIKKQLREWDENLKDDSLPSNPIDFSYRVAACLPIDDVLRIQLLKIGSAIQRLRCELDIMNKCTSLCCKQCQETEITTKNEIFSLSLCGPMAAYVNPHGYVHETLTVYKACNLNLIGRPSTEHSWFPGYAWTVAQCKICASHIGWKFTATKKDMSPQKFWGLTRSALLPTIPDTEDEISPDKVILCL
T1 sequence (Q16531 whole entry partner): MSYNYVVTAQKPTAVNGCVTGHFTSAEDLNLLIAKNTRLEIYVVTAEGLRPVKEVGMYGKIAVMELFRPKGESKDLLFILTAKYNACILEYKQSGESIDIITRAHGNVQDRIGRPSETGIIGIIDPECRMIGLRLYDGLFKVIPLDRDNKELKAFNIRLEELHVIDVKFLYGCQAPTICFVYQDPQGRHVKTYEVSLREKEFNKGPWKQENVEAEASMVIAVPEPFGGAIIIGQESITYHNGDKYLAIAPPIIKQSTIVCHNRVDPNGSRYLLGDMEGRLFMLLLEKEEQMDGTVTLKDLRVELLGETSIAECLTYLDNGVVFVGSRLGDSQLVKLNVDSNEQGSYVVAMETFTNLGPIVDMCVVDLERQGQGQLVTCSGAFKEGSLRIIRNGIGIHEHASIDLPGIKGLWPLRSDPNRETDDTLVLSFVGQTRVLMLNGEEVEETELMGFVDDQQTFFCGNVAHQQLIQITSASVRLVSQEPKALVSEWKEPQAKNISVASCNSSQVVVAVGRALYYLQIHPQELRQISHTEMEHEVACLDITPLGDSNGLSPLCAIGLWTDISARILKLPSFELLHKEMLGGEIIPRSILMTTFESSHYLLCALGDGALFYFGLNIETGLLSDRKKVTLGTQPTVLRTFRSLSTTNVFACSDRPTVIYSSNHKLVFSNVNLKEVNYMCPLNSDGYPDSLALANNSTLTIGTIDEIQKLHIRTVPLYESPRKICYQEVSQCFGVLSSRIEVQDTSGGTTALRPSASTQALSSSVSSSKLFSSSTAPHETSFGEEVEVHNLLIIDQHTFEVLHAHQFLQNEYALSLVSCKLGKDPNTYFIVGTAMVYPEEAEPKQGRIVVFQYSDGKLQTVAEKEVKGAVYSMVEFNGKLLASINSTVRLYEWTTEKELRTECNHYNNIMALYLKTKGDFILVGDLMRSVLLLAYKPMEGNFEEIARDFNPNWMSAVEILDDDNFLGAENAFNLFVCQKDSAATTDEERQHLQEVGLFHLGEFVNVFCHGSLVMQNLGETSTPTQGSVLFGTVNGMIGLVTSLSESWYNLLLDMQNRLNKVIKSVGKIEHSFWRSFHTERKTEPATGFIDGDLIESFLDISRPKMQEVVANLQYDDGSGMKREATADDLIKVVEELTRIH
Method in brief: (§1)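 Jurkat cells (80,000/well, RPMI+10% FBS) were exposed to compound for 72 h at 37 °C, then fixed, permeabilized and co-stained for 1 h with Ikaros-Alexa488 and Helios-PE antibodies. Intracellular protein levels were read by flow cytometry.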

[2] = molecular target: T2, Ikaros (Homo sapiens, UniProt Q13422); assay: Helios Cellular Degradation Assay, Ikaros readout (flow cytometry, Ikaros-Alexa488 antibody staining, 72 h); type: cell-based; settings: for Dmax: Jurkat, read-out: Ikaros Dmax
T2 construct: fluorescently labelled antibodies against Helios and Ikaros; endogenous in cells; host or cells: Jurkat cells
T2 sequence (Q96SW2 whole entry partner): as the sequence (Q96SW2 whole entry) above
T2 sequence (Q16531 whole entry partner): as the sequence (Q16531 whole entry partner) above
T2 sequence (Q13422 whole entry): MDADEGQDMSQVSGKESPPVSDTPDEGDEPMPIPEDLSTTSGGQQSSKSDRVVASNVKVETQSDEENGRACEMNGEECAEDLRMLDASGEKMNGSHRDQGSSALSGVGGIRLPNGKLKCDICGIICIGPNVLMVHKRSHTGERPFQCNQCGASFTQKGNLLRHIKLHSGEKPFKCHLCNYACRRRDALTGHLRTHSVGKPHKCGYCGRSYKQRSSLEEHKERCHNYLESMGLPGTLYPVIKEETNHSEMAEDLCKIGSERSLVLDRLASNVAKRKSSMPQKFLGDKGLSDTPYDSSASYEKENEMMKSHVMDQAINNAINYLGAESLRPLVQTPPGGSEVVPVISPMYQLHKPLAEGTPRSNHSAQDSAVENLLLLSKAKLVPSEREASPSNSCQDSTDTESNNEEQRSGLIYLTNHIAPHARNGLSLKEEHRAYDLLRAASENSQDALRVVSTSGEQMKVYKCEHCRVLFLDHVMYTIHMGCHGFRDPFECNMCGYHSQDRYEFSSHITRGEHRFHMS
Method in brief: as §1

[3] = Jurkat cells, 72 h incubation, flow cytometry

Row | Compound | DC50 [1, 3] [nM] | Dmax [1, 3] [%] | DC50 [2, 3] [nM] | Dmax [2, 3] [%] | Dmax [1] [%] | Dmax [2] [%]
1 | CC1(C)CN(Cc2ccnc(-c3ccc4c(c3)CN(C3CCC(=O)NC3=O)C4=O)c2)C1 (centres unmarked) [Example 51, 3-(5-(4-((3,3-dimethylazetidin-1-yl)methyl)pyridin-2-yl)-1-oxoisoindolin-2-yl)piperidine-2,6-dione] | 64 | 70 | > 10000 | 11 | – | –
2 | O=C1CCC(N2Cc3cc(-c4cc(CNC5CCN(Cc6ccccc6)C5)ccn4)ccc3C2=O)C(=O)N1 (centres unmarked) [Example 104, 3-(5-(4-(((1-benzylpyrrolidin-3-yl)amino)methyl)pyridin-2-yl)-1-oxoisoindolin-2-yl) piperidine-2,6-dione] | > 10000 | 44 | > 10000 | 1 | – | –
3 | CC1(c2ccc(N)cc2)CCN(Cc2ccnc(-c3ccc4c(c3)CN(C3CCC(=O)NC3=O)C4=O)c2)CC1 (centres unmarked) [Example 121, 3-(5-(4-((4-(4-aminophenyl)-4-methylpiperidin-1-yl)methyl)pyridin-2-yl)-1-oxoisoindolin-2-yl)piperidine-2,6-dione] | 24 | – | > 10000 | 19 | 77 | –
4 | CN(C)C1CCC(NCc2ccnc(-c3ccc4c(c3)CN(C3CCC(=O)NC3=O)C4=O)c2)CC1 (centres unmarked) [Example 107, 3-(5-(4-(((4-(dimethylamino)cyclohexyl)amino)methyl)pyridin-2-yl)-1-oxoisoindolin-2-yl) piperidine-2,6-dione] | 494 | 80 | > 10000 | 15 | – | –
5 | CN(C)Cc1ccnc(-c2ccc3c(c2)CN(C2CCC(=O)NC2=O)C3=O)c1 (centres unmarked) [Example 1, 3-(5-{4-[(Dimethylamino)methyl]pyridin-2-yl}-1-oxo-2,3-dihydro-1H-isoindol-2-yl) piperidine-2,6-dione] | 25 | 84 | > 10000 | 9 | – | –
6 | O=C1CCC(N2Cc3cc(-c4cc(CNC5CCC(O)CC5)ccn4)ccc3C2=O)C(=O)N1 (centres unmarked) [Example 101, 3-(5-(4-(((4-hydroxycyclohexyl)amino)methyl)pyridin-2-yl)-1-oxoisoindolin-2-yl)piperidine-2,6-dione] | 59 | 89 | > 10000 | 22 | – | –
7 | N#CCNCc1ccnc(-c2ccc3c(c2)CN(C2CCC(=O)NC2=O)C3=O)c1 (centres unmarked) [Example 99, 2-(((2-(2-(2,6-dioxopiperidin-3-yl)-1-oxoisoindolin-5-yl)pyridin-4-yl)methyl)amino)acetonitrile] | 419 | 65 | > 10000 | 6 | – | –
8 | CC(C)(C)NCc1ccnc(-c2ccc3c(c2)CN(C2CCC(=O)NC2=O)C3=O)c1 (centres unmarked) [Example 89, 3-(5-(4-((tert-butylamino)methyl)pyridin-2-yl)-1-oxoisoindolin-2-yl)piperidine-2,6-dione] | 103 | – | > 10000 | – | 71 | 8
9 | O=C1CCC(N2Cc3cc(-c4cc(CNC5CCCC5)ccn4)ccc3C2=O)C(=O)N1 (centres unmarked) [Example 86, 3-(5-(4-((cyclopentylamino)methyl)pyridin-2-yl)-1-oxoisoindolin-2-yl)piperidine-2,6-dione] | 19 | 91 | > 10000 | 20 | – | –
10 | NC(=O)C1CCN(Cc2ccnc(-c3ccc4c(c3)CN(C3CCC(=O)NC3=O)C4=O)c2)CC1 (centres unmarked) [Example 41, 1-((2-(2-(2,6-dioxopiperidin-3-yl)-1-oxoisoindolin-5-yl)pyridin-4-yl)methyl)piperidine-4-carboxamide] | 727 | 80 | > 10000 | 24 | – | –
11 | O=C1CCC(N2Cc3cc(-c4cc(CNCCc5cccc(Cl)c5)ccn4)ccc3C2=O)C(=O)N1 (centres unmarked) [Example 102, 3-(5-(4-(((3-chlorophenethyl)amino)methyl)pyridin-2-yl)-1-oxoisoindolin-2-yl)piperidine-2,6-dione] | 11 | 97 | > 10000 | 10 | – | –
12 | C[C@@H]1CCCCN1Cc1ccnc(-c2ccc3c(c2)CN(C2CCC(=O)NC2=O)C3=O)c1 (stereo partly drawn) [Example 71, 3-(5-(4-(((R)-2-methylpiperidin-1-yl)methyl)pyridin-2-yl)-1-oxoisoindolin-2-yl)piperidine-2,6-dione] | > 10000 | 17 | > 10000 | 8 | – | –

The next lines start with results.

Row | DC50 [1, 3] [nM] | Dmax [1, 3] [%] | DC50 [2, 3] [nM] | Dmax [2, 3] [%] | Compound | Dmax [1] [%] | Dmax [2] [%]
13 | 1020 | 56 | > 10000 | 31 | O=C1CCC(N2Cc3cc(-c4cc(CN(Cc5ccccc5)Cc5ccccc5)ccn4)ccc3C2=O)C(=O)N1 (centres unmarked) [Example 163, 3-(5-{4-[(Dibenzylamino)methyl]pyridin-2-yl}-1-oxo-2,3-dihydro-1H-isoindol-2-yl)piperidine-2,6-dione] | – | –
14 | 137 | 75 | > 10000 | 10 | O=C1CCC(N2Cc3cc(-c4cc(CN[C@@H]5C[C@H]5c5ccccc5)ccn4)ccc3C2=O)C(=O)N1 (stereo partly drawn) [Example 111, 3-(1-oxo-5-(4-((((1R,2S)-2-phenylcyclopropyl)amino)methyl)pyridin-2-yl)isoindolin-2-yl)piperidine-2,6-dione] | – | –
15 | > 10000 | 3 | > 10000 | 5 | CN(Cc1ccc(S(=O)(=O)N(C)C)cc1)Cc1ccnc(-c2ccc3c(c2)CN(C2CCC(=O)NC2=O)C3=O)c1 (centres unmarked) [Example 146, 4-{[({2-[2-(2,6-Dioxopiperidin-3-yl)-1-oxo-2,3-dihydro-1H-isoindol-5-yl]pyridin-4-yl}methyl)(methyl)amino]methyl}-N,N-dimethylbenzene-1-sulfonamide] | – | –
16 | 11 | 80 | > 10000 | 16 | O=C1CCC(N2Cc3cc(-c4cc(CN5CCC5c5ccccc5)c(F)cn4)ccc3C2=O)C(=O)N1 (centres unmarked) [Example 189, 3-(5-(5-fluoro-4-((2-phenylazetidin-1-yl)methyl)pyridin-2-yl)-1-oxoisoindolin-2-yl)piperidine-2,6-dione] | – | –
17 | 421 | 62 | > 10000 | 2 | CC(CCO)N(C)Cc1ccnc(-c2ccc3c(c2)CN(C2CCC(=O)NC2=O)C3=O)c1 (centres unmarked) [Example 185, 3-(5-(4-(((4-hydroxybutan-2-yl)(methyl)amino)methyl)pyridin-2-yl)-1-oxoisoindolin-2-yl)piperidine-2,6-dione] | – | –
18 | 16 | 93 | > 10000 | 8 | C[C@@H]1CCCN1Cc1ccnc(-c2ccc3c(c2)CN(C2CCC(=O)NC2=O)C3=O)c1 (stereo partly drawn) [Example 125, 3-(5-(4-(((R)-2-methylpyrrolidin-1-yl)methyl)pyridin-2-yl)-1-oxoisoindolin-2-yl) piperidine-2,6-dione] | – | –
19 | 16 | 95 | > 10000 | 19 | O=C1CCC(N2Cc3cc(-c4cc(CN5CCC[C@@H]5c5ccccc5)ccn4)ccc3C2=O)C(=O)N1 (stereo partly drawn) [Example 134, 3-(1-oxo-5-(4-(((R)-2-phenylpyrrolidin-1-yl)methyl)pyridin-2-yl)isoindolin-2-yl)piperidine-2,6-dione] | – | –
20 | 440 | 69 | > 10000 | 20 | O=C1CCC(N2Cc3cc(-c4cc(CN5CC(c6cccnc6)C5)ccn4)ccc3C2=O)C(=O)N1 (centres unmarked) [Example 203, 3-(1-oxo-5-(4-((3-(pyridin-3-yl)azetidin-1-yl)methyl)pyridin-2-yl)isoindolin-2-yl)piperidine-2,6-dione] | – | –
21 | 232 | 74 | > 10000 | 2 | O=C1CCC(N2Cc3cc(-c4cc(CNCC5CCO5)ccn4)ccc3C2=O)C(=O)N1 (centres unmarked) [Example 129, 3-(5-(4-(((oxetan-2-ylmethyl)amino)methyl)pyridin-2-yl)-1-oxoisoindolin-2-yl)piperidine-2,6-dione] | – | –
22 | 230 | 62 | > 10000 | 8 | O=C1CCC(N2Cc3cc(-c4cc(CN5CC(c6ccccc6)C5)c(Cl)cn4)ccc3C2=O)C(=O)N1 (centres unmarked) [Example 186, 3-(5-(5-chloro-4-((3-phenylazetidin-1-yl)methyl)pyridin-2-yl)-1-oxoisoindolin-2-yl)piperidine-2,6-dione] | – | –
23 | > 10000 | 17 | > 10000 | 6 | CN(Cc1ccc(C(F)(F)F)cc1)Cc1ccnc(-c2ccc3c(c2)CN(C2CCC(=O)NC2=O)C3=O)c1 (centres unmarked) [Example 149, 3-(5-(4-((methyl(4-(trifluoromethyl)benzyl)amino)methyl)pyridin-2-yl)-1-oxoisoindolin-2-yl)piperidine-2,6-dione] | – | –
24 | 11 | 90 | > 10000 | 12 | CC1(C)CCN(Cc2ccnc(-c3ccc4c(c3)CN(C3CCC(=O)NC3=O)C4=O)c2)C1 (centres unmarked) [Example 118, 3-(5-(4-((3,3-dimethylpyrrolidin-1-yl)methyl)pyridin-2-yl)-1-oxoisoindolin-2-yl)piperidine-2,6-dione] | – | –
25 | 212 | 78 | > 10000 | 4 | CC(C)CN(C)Cc1ccnc(-c2ccc3c(c2)CN(C2CCC(=O)NC2=O)C3=O)c1 (centres unmarked) [Example 179, 3-(5-(4-((isobutyl(methyl)amino)methyl)pyridin-2-yl)-1-oxoisoindolin-2-yl)piperidine-2,6-dione] | – | –
26 | 67 | 83 | > 10000 | 17 | Cc1ccc(CN(C)Cc2ccnc(-c3ccc4c(c3)CN(C3CCC(=O)NC3=O)C4=O)c2)cc1 (centres unmarked) [Example 161, 3-(5-(4-((methyl(4-methylbenzyl)amino)methyl)pyridin-2-yl)-1-oxoisoindolin-2-yl)piperidine-2,6-dione] | – | –
